This is an account of results in patent US7745457B2, “Meridamycin analogues for the treatment of neurodegenerative disorders” (Wyeth LLC, priority 2006, dated 2010).

In the assay the test system is cortical neuron cultures. Description: Neurite outgrowth in dissociated cortical neuron cultures. The note with it: Cortical neurone; embryonic day 15 rat cortical neurons, 72 hours treatment, TUJ-1 staining, Cellomics ArrayScan ENO algorithm; read-out: EC50 in cortical neuron assays (neurite outgrowth). The format is cell-based. The protocol: Dissociated cortical neuron cultures were prepared as previously described (Pong et al., 2001). Briefly, embryonic day 15 rat fetuses were collected and dissected in ice-cold PBS. Dissected cortices were pooled together and transferred to an enzymatic dissociation medium containing papain. After 30 minutes, the tissue was mechanically triturated with a fire-polished glass Pasteur pipette. Single-cell suspensions in complete media were seeded on poly-L-ornithine and laminin coated 96-well plates. 24 hours later, cultures were treated with various concentrations of compound for 72 hours. The cultures were then fixed and stained with an anti-tubulin primary antibody (TUJ-1) and a fluorescent-tagged secondary antibody. Neurite outgrowth was determined by using the Enhanced Neurite Outgrowth (ENO) algorithm with the Cellomics ArrayScan and expressed as average neurite length or total neurite length per cell.

A word on the EC50: it is the midpoint of the concentration-response curve. In the case of `CC/C1=C\CC(/C(C)=C/C(C)C(C)O)OC(=O)C2CCCCN2C(=O)C(=O)C2(O)OC(CCC2C)CC(O)C(C)C(O)CC2CC(OC(C)(C)O2)/C(C)=C/C(C)CC(C)C1O` (stereo not drawn) [Example 4], the EC50 was less than 1 µM.

With `CC/C1=C\CC(/C(C)=C/C(C)C(C)OC(C)=O)OC(=O)C2CCCCN2C(=O)C(=O)C2(O)OC(CCC2C)CC(OC(C)=O)C(C)C(OC(C)=O)CC(OC(C)=O)CC(OC(C)=O)/C(C)=C/C(C)CC(C)C1OC(C)=O` (stereo not drawn) [Example 2], the EC50 is less than 1 µM.

On to `CC/C1=C\CC(/C(C)=C/C(C)C(C)OC(C)=O)OC(=O)C2CCCCN2C(=O)C(=O)C2(O)OC(CCC2C)CC(O)C(C)C(OC(C)=O)CC(OC(C)=O)CC(OC(C)=O)/C(C)=C/C(C)CC(C)C1OC(C)=O` (stereo not drawn) [Example 5], for which the EC50 is less than 1 µM.

Turning to `CC/C1=C\CC(/C(C)=C/C(C)C(C)=O)OC(=O)C2CCCCN2C(=O)C(=O)C2(O)OC(CCC2C)CC2OC(C)(C)OC(CC3CC(OC(C)(C)O3)/C(C)=C/C(C)CC(C)C1=O)C2C` (stereo not drawn) [Example 6], the EC50 was less than 1 µM.

As to `CC/C1=C\CC(/C(C)=C/C(C)C(C)O)OC(=O)C2CCCCN2C(=O)C(=O)C2(O)OC(CCC2C)CC2OC(C)(C)OC(CC3CC(OC(C)(C)O3)/C(C)=C/C(C)CC(C)C1O)C2C` (stereo not drawn) [Example 1], the EC50 is less than 1 µM.

For the molecule `CC/C1=C\CC(/C(C)=C/C(C)C(C)OC(C)=O)OC(=O)C2CCCCN2C(=O)C(=O)C2(O)OC(CCC2C)CC(O)C(C)C(O)CC(OC(C)=O)CC(OC(C)=O)/C(C)=C/C(C)CC(C)C1OC(C)=O` (stereo not drawn) [Example 3], the concentration giving a half-maximal response (EC50) was less than 1 µM.
